Assay results from patent publication US10450613B2, “EGFR/NEDD9/TGF-β interactome and methods of use thereof for the identification of agents having efficacy in the treatment of hyperproliferative disorders” (Fox Chase Cancer Center, priority 2007, dated 2019).

Experiments:
cancer cells = assay: Drug synergy testing (Chou-Talalay CI), cell line not stated (FIG. 17B); assay type: cell-based
Experimental: (§1) The coefficient of interaction (CI) between pharmacological inhibitors was established by the Chou-Talalay method (Chou et al., (1984) Adv Enzyme Regul 22:27). The software package CalcuSyn (BioSoft, UK) was used to automate calculations. Briefly, for each drug tested, an IC50 curve was established in each cell line, and used to select combination doses of drugs for subsequent synergy tests. 3500 cells were plated per well in 96-well plates. After 24 hours, cells were treated with serial dilutions of individual inhibitors, or combinations of two inhibitors maintained at a constant molar ratio. After 72 hours incubation, cell viability was measured using either CellTiter Blue (Promega, USA) or a WST1 assay (Roche Applied Science, Indianapolis, Ind.). The CI values for each dose and corresponding cytotoxicity were expressed as the fraction affected (Fa) and were calculated using CalcuSyn computer software and presented as Fa-CI plots. CI values <1 indicate synergy, and <0.5 strong synergy, between the two agents in producing cytotoxic effect.

A431 cells [1] = assay: Drug synergy testing (Chou-Talalay CI), viability; assay type: cell-based, human; details: 72 hours, CI <1 synergy, <0.5 strong synergy
Experimental: as §1

HCT116 cells = assay: Drug synergy testing (Chou-Talalay CI), viability; assay type: cell-based, human; details: HCT116; 72 hours; CI <1 synergy, <0.5 strong synergy
Experimental: as §1

A431 cells [2] = assay: Cell motility, wound healing assay; assay type: cell-based, human; details: 0.5 μM erlotinib with 0.5 μM Stattic or 0.25 μM Ro-318220, 18 hours
Experimental: Soft agar assays were done essentially as described (10). Cells were seeded at 2000 cells per well and grown for 2-3 weeks. Colonies were stained with thiazolyl blue tetrazolium bromide, and scored using a Nikon SMZ1500 microscope coupled with Cool Snap charge coupled device camera (Roper Scientific, Inc., Tucson, Ariz.) with Image Pro-Plus software (Media Cybernetics, Silver Spring, Md.). Survival curves were based on at least two concentration points, with values determined in at least two separate experiments, with each assay done in duplicate. Drug interactions were calculated as above using CalcuSyn software (Biosoft, Ferguson, Mo.) to establish the combination index (CI). For motility assays, movement of A431 cells grown in 1% FCS into a scratched area of the monolayer was monitored with a phase contrast 10× objective using an inverted microscope (Nikon TE2000). Images were obtained every 20 min for 18 hours. Areas of migration were estimated using MetaMorph software. For both studies, analysis of variance was used to determine the treatment effect for each comparison. The logarithm of normalized ratios (to vehicle control) was used in the analysis. Multiple hypothesis testing was accounted for by the false discovery rate method of Benjamini & Hochberg (supra).

AKT = assay: Western analysis of AKT activation in A431 lysates (siRNA or inhibitors), basal and EGF-stimulated; assay type: cell-based, human; details: serum starvation or EGF stimulation (FIG. 16)
Experimental: To measure the effect of siRNAs on the activity of EGFR effectors, cells were transfected with siRNA, and the culture media replaced with glutamine-supplemented serum-free DMEM at 24 hrs post-transfection. After overnight incubation, cells were treated with DMSO, erlotinib or PHA-680632 for 2 hrs, then either left untreated, or stimulated with EGF at 15 ng/ml for 15 minutes. Cell extracts were prepared using M-PER™ mammalian protein extraction buffer (Thermo Scientific, Rockford, Ill.) supplemented with the Halt™ phosphatase inhibitor cocktail (Thermo Scientific, Rockford, Ill.) and the Complete Mini™ protease inhibitor cocktail (Roche Diagnostics Gmbh, Manheim, Germany). Extracts were centrifuged at 15,000 g for 10 min at 4° C. Western signal detection was performed using antibodies to indicated proteins with LiCor technology (Lincoln, Nebr., USA) or standard X-ray film.

A431 cells [3] = assay: Phosphoproteomic analysis, Proteome Profiler array of 46 signaling proteins; assay type: cell-based, human; details: A431, serum starved, EGF-stimulated (FIG. 19A)
Experimental: For phosphoproteomic analysis, we used the Proteome Profiler™ array (R&D Systems, Minneapolis, Minn., USA) according to the manufacturer's protocol. In brief, A431 cells were grown for 24 hours in DMEM supplemented with L-glutamine and 1% FBS to 70% confluency. Cells then were either serum starved overnight or remained in the same media. Serum starved and cells incubated in 1% serum were either left untreated or incubated with IC30 concentrations of inhibitors for 3 hours. […] Serum-starved cells were subsequently stimulated with recombinant EGF (Sigma-Aldrich, USA) at 15 ng/mL for 15 minutes before lysis. For a subset of phospho-proteins, phosphorylation status was confirmed by Western blot. Quantification was done using ImageJ software.

A431 cells [4] = assay: siRNA library sensitization screen, Alamar blue (CellTiter Blue) viability, sensitization index (SI) with erlotinib, panitumumab, U0126, CPT11 vs DMSO; assay type: cell-based, human; details: siRNA against the named gene, false discovery rate set at 5%; for Ratio (CPT11): sensitization to CPT11; for Ratio (Erlotinib): sensitization to erlotinib
Excerpt: The custom siRNA library targeting 638 human genes was designed and synthesized with two siRNA duplexes for each gene target (Qiagen, Valencia, Calif.). Transfection conditions were established for the A431 […] (K-Ras wt, p53 mutant) cell line (data not shown) using PLK1 & GL2 siRNA controls to achieve Z′ values of 0.5 or greater. IC values using erlotinib, panitumumab, and camptothecin (CPT11) were established (data not shown). Details of establishment of Z′ factor for transfections, and statistical consideration for selection of preliminary positive candidates graphically outlined in FIG. 4B, and based on standard approaches described in detail in Whitehurst et al., (2007) Nature 446:815). For each gene targeted, two independent siRNA duplexes were combined and arrayed in 96-well plates with a layout intended to seed in regular positive siRNA (targeting PLK1) and negative control siRNA (targeting insect luciferase GL2, Thermo Fisher Scientific, USA) amongst test siRNAs. A reverse transfection protocol was used where siRNA at final concentration of 50 nM was mixed with Dharmafect 1 transfection reagent according to the manufacturer's instructions (Thermo Fisher, USA). Cells (3500 per well, resuspended in 1% FBS/DMEM) were added directly to wells using an automated liquid dispenser. At 24 hr following transfection, two replica plates were treated with drugs at previously established IC30 or 0.02% DMSO diluted in culture media. The viability at 96 hr post-transfection was assessed using Alamar blue (CellTiter Blue Viability Assay, Promega, USA). Dose-responses for each drug and cell line were retested in parallel with each screen.
For screening, A431 cells were transfected with siRNA followed by exposure to vehicle (0.02% DMSO), or drug used at inhibitory concentrations of 30% KA. Viability was determined for each target gene and normalized to the averaged GL2 viability on each plate. Sensitization index (SI) was calculated for each individual well on a 96-well plate as SI=(Vdrug/GL2drug)/(VDMSO/GL2DMSO), where V was viability in wells transfected with targeting duplexes and GL2 was the averaged viability of 4 wells with non-targeting negative control siRNA on the same plate. All calculations were automated using cellHTS package within open source Bioconductor Package (on the web at bioconductor.org) (Gentleman et al. (2004) Genome Biol. 5:R80). The effect of drug treatment on viability was measured based on the normalized viabilities in the drug treated and vehicle wells using Limma (Smyth, G. K. (2004) Statistical Applications in genetics and molecular biology 3, Article 3). Limma borrows strength across genes based on an empirical Bayes approach and identifies statistically significant changes in viability by combining information from a set of gene-specific tests. Hits were identified based on statistical significance as well as biological significance. Statistical significance was determined by p-value controlled for the false discovery rate (FDR) using the Benjamini-Hochberg step-up method (Benjamini et al. (1995) J. Royal Stat Soc B 57:289) to account for multiple testing. […] Biological significance was arbitrarily defined as an increase or decrease in SI greater than 15%. Hits identified as statistically and biologically significant were further validated.
Primary sensitizing hits obtained with erlotinib and/or cetuximab were further tested with erlotinib and DMSO in the A431 cell line by using 4 siRNA duplexes individually (the two originally used in the screen, plus two new non-overlapping RNA oligoribonucleotides), to confirm the sensitization phenotype at 10 nM and 50 nM concentrations. Hits were considered as validated by this method if at least 2 out of 4 siRNA reproduced the sensitization phenotype with SI≤0.85, FDR≤20% for each individual siRNA sequence in at least two independent experiments. […]

[5] = tested on: A431, HCT116, DLD-1, DKS-8, LoVo, SCC61, PANC-1 and MIA PaCa-2 cell lines; assay: Cell line specificity of hit activity: siRNA sensitization to erlotinib, cetuximab and CPT11, and intrinsic viability; assay type: cell-based, human; details: network analysis of stronger hits (FIG. 14A)
Experimental: Cell line specificity of hit activity. Of the confirmed set of 61 siRNA targets identified for erlotinib in A431 cells, 45 were further tested for sensitization to erlotinib, cetuximab and camptothecin in A431 versus refractory adenocarcinoma cell lines for which optimal transfection conditions and drug sensitivity had been established. […] SI and statistical significance were calculated as in the validation experiments. All experiments were performed at least three times independently.
In subsequent data analysis, two approaches were used. […] For all experiments performed with a given cell:drug combination (e.g., A431:erlotinib, or HCT116:CPT11) averages were determined based on at least three experimental runs. […]
In additional experiments, we comparatively profiled the efficacy of the hit panel as sensitizers of erlotinib, cetuximab, and CPT11 across a set of cell lines, including A431, the colorectal adenocarcinoma cell lines HCT116, DLD-1, DKS-8, and LoVo, the head and neck squamous cell carcinoma cell line SCC61, and the pancreatic adenocarcinoma cell lines PANC-1 and MIA PaCa-2 (FIG. 13A). […] To compensate for this difference, we analyzed the data in two ways: first, by conventional threshold analysis (FIG. 13A, left), and second, by assessing the rank order of sensitization phenotype, using relaxed statistical criteria (FIG. 13A, right; see Materials and Methods). […]

O=C(Nc1cccc(Nc2nccc(Nc3cccc(C(F)(F)F)c3)n2)c1)C1CC1 [C1368]
Synergy with erlotinib (Chou-Talalay CI) (cancer cells): synergized

Cn1cc(C2=C(c3cn(CCCSC(=N)N)c4ccccc34)C(=O)NC2=O)c2ccccc21 [Ro-318220]
Synergy with erlotinib in reducing viability (Chou-Talalay CI) (A431 cells [1]): synergized very significantly
Synergy with erlotinib in reducing viability (Chou-Talalay CI) (HCT116 cells): synergized very significantly
Cell motility, inhibitor in combination with erlotinib (A431 cells [2]): significantly reduced tumor cell motility

O=[N+]([O-])c1ccc2c(c1)S(=O)(=O)C=C2 [Stattic]
Akt S473 phosphorylation, inhibitor in combination with erlotinib (AKT): significantly reduced phosphorylation
Synergy with erlotinib in reducing viability (Chou-Talalay CI) (A431 cells [1]): synergized with erlotinib
Synergy with erlotinib in reducing viability (Chou-Talalay CI) (HCT116 cells): synergized with erlotinib
Cell motility, inhibitor in combination with erlotinib (A431 cells [2]): no statistically significant synergy

Cn1cc(C2=C(c3cn(C4CCN(Cc5ccccn5)CC4)c4ccccc34)C(=O)NC2=O)c2ccccc21 [enzastaurin]
Akt S473 phosphorylation, inhibitor in combination with erlotinib (AKT): significantly reduced phosphorylation
Synergy with erlotinib in reducing viability (Chou-Talalay CI) (A431 cells [1]): synergized very significantly
Synergy with erlotinib in reducing viability (Chou-Talalay CI) (HCT116 cells): synergized very significantly

C#Cc1cccc(Nc2ncnc3cc(OCCOC)c(OCCOC)cc23)c1 [erlotinib]
Phosphorylation of 46 signaling proteins, single agent (A431 cells [3]): blocked EGF-induced activation of multiple signaling pathways

GAB2 (sense CACCAATTCTGAAGACAACTA; target sequence only, further chemistry not given here)
Ratio (CPT11) (A431 cells [4]): 0.83

GRB14 (sense AAGAATGTATTTCACCTGCAA; target sequence only, antisense strand not given here)
Ratio (Erlotinib) (A431 cells [4]): 0.54

MAP3K1 (sense CACGCATGTCAAATTCTCATA; target sequence only, antisense strand not given here)
Ratio (Erlotinib) (A431 cells [4]): 0.66

PRKACB: siRNA duplexes of the custom library targeting PRKACB (sense CAGCCTGTGTAGTGTGACAAA; target sequence only, antisense strand not given here)
Ratio (CPT11) (A431 cells [4]): 0.43
Ratio (Erlotinib) (A431 cells [4]): 0.53
Ratio (Panitumumab) (A431 cells [4]; sensitization to panitumumab): 0.63
Sensitizing activity of stronger hits across cell lines [5]: strong sensitizers
